Data reported in patent US20230398130A1, “METHODS AND COMPOSITIONS FOR DIFFERENTIATING STEM CELLS” (Massachusetts Institute of Technology, priority 2020, published 2023).

How the values were obtained:
ISC-enriched organoids [1] = experiment: Primary screen, 384-well 2.5-D organoid differentiation (ENR+CD, 6 days): basal lysozyme secretion (LYZ.NS); format: cell-based, murine; details: for Dose.FC.LYZ.NS: FC vs plate median; for SSMD.LYZ.NS: strictly standardized mean difference; for Dose.FC.LYZ.NS (log 2 fold change): vs plate median
Description: (§1) High-throughput screening.

ISC-enriched organoids [2] = experiment: Primary screen, 384-well 2.5-D organoid differentiation (ENR+CD, 6 days, Target Selective Inhibitor Library, vs whole-plate median): ATP (CellTiter-Glo 3D, CTG); details: for Dose.FC.CTG: FC vs plate median; for SSMD.CTG: strictly standardized mean difference; for Dose.FC.CTG (log 2 fold change): vs plate median
ISC-enriched organoids [3] = experiment: Primary screen, 384-well 2.5-D organoid differentiation (ENR+CD, 6 days): carbachol-induced lysozyme secretion (LYZ.S); format: cell-based, murine; details: primary screen; for Dose.FC.LYZ.S: FC vs plate median; for Z.LYZ.S: standard z score; for SSMD.LYZ.S: strictly standardized mean difference; for Dose.FC.LYZ.S (log 2 fold change): vs plate median
Description: as §1

[4] = Dose 0.08 uM, primary screen, standard z score
[5] = Dose 0.40 uM, primary screen, standard z score
[6] = Dose 2.00 uM, primary screen, standard z score
[7] = Dose 10.00 uM, primary screen, standard z score
[8] = primary screen, 1st of the 4 dose lines of the treatment (dose not given)
[9] = primary screen, 2nd of the 4 dose lines of the treatment (dose not given)
[10] = primary screen, 3rd of the 4 dose lines of the treatment (dose not given)
[11] = primary screen, 4th of the 4 dose lines of the treatment (dose not given)
[12] = 1st of the 4 dose lines of the treatment (dose not given)
[13] = 2nd of the 4 dose lines of the treatment (dose not given)
[14] = 3rd of the 4 dose lines of the treatment (dose not given)
[15] = 4th of the 4 dose lines of the treatment (dose not given)
[16] = Dose 0.08 uM, standard z score of FC
[17] = Dose 0.40 uM, standard z score of FC
[18] = Dose 2.00 uM, standard z score of FC
[19] = Dose 10.00 uM, standard z score of FC

## KX2-391
ISC-enriched organoids [1]; Dose 0.08 uM, primary screen
  Dose.FC.LYZ.NS: −0.283 log 2 fold change
ISC-enriched organoids [1]; [4]
  Z.LYZ.NS: −2.468
ISC-enriched organoids [1]; Dose 0.40 uM, primary screen
  Dose.FC.LYZ.NS: −0.292 log 2 fold change
ISC-enriched organoids [1]; [5]
  Z.LYZ.NS: −2.546
ISC-enriched organoids [1]; Dose 2.00 uM, primary screen
  Dose.FC.LYZ.NS: −0.251 log 2 fold change
ISC-enriched organoids [1]; [6]
  Z.LYZ.NS: −2.188
ISC-enriched organoids [1]; Dose 10.00 uM, primary screen
  Dose.FC.LYZ.NS: −0.286 log 2 fold change
ISC-enriched organoids [1]; [7]
  Z.LYZ.NS: −2.494
ISC-enriched organoids [1]; [8]
  SSMD.LYZ.NS: −2.177
ISC-enriched organoids [1]; [9]
  SSMD.LYZ.NS: −1.855
ISC-enriched organoids [1]; [10]
  SSMD.LYZ.NS: −1.701
ISC-enriched organoids [1]; [11]
  SSMD.LYZ.NS: −2.061
ISC-enriched organoids [2]; Dose 0.08 uM, primary screen
  Dose.FC.CTG: −0.752 log 2 fold change
ISC-enriched organoids [2]; [4]
  Z.CTG: −1.796
ISC-enriched organoids [2]; Dose 0.40 uM, primary screen
  Dose.FC.CTG: −1.251 log 2 fold change
ISC-enriched organoids [2]; [5]
  Z.CTG: −2.989
ISC-enriched organoids [2]; Dose 2.00 uM, primary screen
  Dose.FC.CTG: −1.983 log 2 fold change
ISC-enriched organoids [2]; [6]
  Z.CTG: −4.737
ISC-enriched organoids [2]; Dose 10.00 uM, primary screen
  Dose.FC.CTG: −1.414 log 2 fold change
ISC-enriched organoids [2]; [7]
  Z.CTG: −3.377
ISC-enriched organoids [2]; [8]
  SSMD.CTG: −2.473
ISC-enriched organoids [2]; [9]
  SSMD.CTG: −2.845
ISC-enriched organoids [2]; [10]
  SSMD.CTG: −2.822
ISC-enriched organoids [2]; [11]
  SSMD.CTG: −1.255
ISC-enriched organoids [3]; Dose 0.08 uM
  Dose.FC.LYZ.S: −0.396 log 2 fold change
ISC-enriched organoids [3]; Dose 0.40 uM
  Dose.FC.LYZ.S: −0.380 log 2 fold change
ISC-enriched organoids [3]; Dose 2.00 uM
  Dose.FC.LYZ.S: −0.424 log 2 fold change
ISC-enriched organoids [3]; Dose 10.00 uM
  Dose.FC.LYZ.S: −0.419 log 2 fold change
ISC-enriched organoids [3]; [12]
  Z.LYZ.S: −2.561
  SSMD.LYZ.S: −2.252
ISC-enriched organoids [3]; [13]
  Z.LYZ.S: −2.455
  SSMD.LYZ.S: −1.641
ISC-enriched organoids [3]; [14]
  Z.LYZ.S: −2.741
  SSMD.LYZ.S: −1.898
ISC-enriched organoids [3]; [15]
  Z.LYZ.S: −2.709
  SSMD.LYZ.S: −2.140

## Maraviroc
ISC-enriched organoids [1]; Dose 0.08 uM, primary screen
  Dose.FC.LYZ.NS: 0.047 log 2 fold change
ISC-enriched organoids [1]; [4]
  Z.LYZ.NS: 0.411
ISC-enriched organoids [1]; Dose 0.40 uM, primary screen
  Dose.FC.LYZ.NS: 0.041 log 2 fold change
ISC-enriched organoids [1]; [5]
  Z.LYZ.NS: 0.358
ISC-enriched organoids [1]; Dose 2.00 uM, primary screen
  Dose.FC.LYZ.NS: 0.031 log 2 fold change
ISC-enriched organoids [1]; [6]
  Z.LYZ.NS: 0.269
ISC-enriched organoids [1]; Dose 10.00 uM, primary screen
  Dose.FC.LYZ.NS: 0.087 log 2 fold change
ISC-enriched organoids [1]; [7]
  Z.LYZ.NS: 0.759
ISC-enriched organoids [1]; [8]
  SSMD.LYZ.NS: 0.274
ISC-enriched organoids [1]; [9]
  SSMD.LYZ.NS: 0.365
ISC-enriched organoids [1]; [10]
  SSMD.LYZ.NS: 0.225
ISC-enriched organoids [1]; [11]
  SSMD.LYZ.NS: 0.547
ISC-enriched organoids [2]; Dose 0.08 uM, primary screen
  Dose.FC.CTG: −0.084 log 2 fold change
ISC-enriched organoids [2]; [4]
  Z.CTG: −0.201
ISC-enriched organoids [2]; Dose 0.40 uM, primary screen
  Dose.FC.CTG: 0.079 log 2 fold change
ISC-enriched organoids [2]; [5]
  Z.CTG: 0.188
ISC-enriched organoids [2]; Dose 2.00 uM, primary screen
  Dose.FC.CTG: −0.009 log 2 fold change
ISC-enriched organoids [2]; [6]
  Z.CTG: −0.022
ISC-enriched organoids [2]; Dose 10.00 uM, primary screen
  Dose.FC.CTG: 0.139 log 2 fold change
ISC-enriched organoids [2]; [7]
  Z.CTG: 0.331
ISC-enriched organoids [2]; [8]
  SSMD.CTG: −0.294
ISC-enriched organoids [2]; [9]
  SSMD.CTG: 0.187
ISC-enriched organoids [2]; [10]
  SSMD.CTG: −0.030
ISC-enriched organoids [2]; [11]
  SSMD.CTG: 0.270
ISC-enriched organoids [3]; Dose 0.08 uM
  Dose.FC.LYZ.S: 0.054 log 2 fold change
ISC-enriched organoids [3]; Dose 0.40 uM
  Dose.FC.LYZ.S: 0.195 log 2 fold change
ISC-enriched organoids [3]; Dose 2.00 uM
  Dose.FC.LYZ.S: 0.005 log 2 fold change
ISC-enriched organoids [3]; Dose 10.00 uM
  Dose.FC.LYZ.S: 0.077 log 2 fold change
ISC-enriched organoids [3]; [12]
  Z.LYZ.S: 0.350
  SSMD.LYZ.S: 0.262
ISC-enriched organoids [3]; [13]
  Z.LYZ.S: 1.262
  SSMD.LYZ.S: 0.754
ISC-enriched organoids [3]; [14]
  Z.LYZ.S: 0.034
  SSMD.LYZ.S: 0.028
ISC-enriched organoids [3]; [15]
  Z.LYZ.S: 0.495
  SSMD.LYZ.S: 0.400

## OG-L002
ISC-enriched organoids [1]; Dose 0.08 uM, primary screen
  Dose.FC.LYZ.NS: 0.000 log 2 fold change
ISC-enriched organoids [1]; [16]
  Z.LYZ.NS: −0.001
ISC-enriched organoids [1]; Dose 0.40 uM, primary screen
  Dose.FC.LYZ.NS: −0.011 log 2 fold change
ISC-enriched organoids [1]; [17]
  Z.LYZ.NS: −0.097
ISC-enriched organoids [1]; Dose 2.00 uM, primary screen
  Dose.FC.LYZ.NS: 0.021 log 2 fold change
ISC-enriched organoids [1]; [18]
  Z.LYZ.NS: 0.182
ISC-enriched organoids [1]; Dose 10.00 uM, primary screen
  Dose.FC.LYZ.NS: −0.091 log 2 fold change
ISC-enriched organoids [1]; [19]
  Z.LYZ.NS: −0.790
ISC-enriched organoids [2]; Dose 0.08 uM, primary screen
  Dose.FC.CTG: 0.094 log 2 fold change
ISC-enriched organoids [2]; [16]
  Z.CTG: 0.225
ISC-enriched organoids [2]; Dose 0.40 uM, primary screen
  Dose.FC.CTG: 0.138 log 2 fold change
ISC-enriched organoids [2]; [17]
  Z.CTG: 0.329
ISC-enriched organoids [2]; Dose 2.00 uM, primary screen
  Dose.FC.CTG: 0.128 log 2 fold change
ISC-enriched organoids [2]; [18]
  Z.CTG: 0.306
ISC-enriched organoids [2]; Dose 10.00 uM, primary screen
  Dose.FC.CTG: 0.094 log 2 fold change
ISC-enriched organoids [2]; [19]
  Z.CTG: 0.225
ISC-enriched organoids [3]; Dose 0.08 uM
  Dose.FC.LYZ.S: 0.023 log 2 fold change
ISC-enriched organoids [3]; Dose 0.40 uM
  Dose.FC.LYZ.S: 0.026 log 2 fold change
ISC-enriched organoids [3]; Dose 2.00 uM
  Dose.FC.LYZ.S: −0.001 log 2 fold change
ISC-enriched organoids [3]; Dose 10.00 uM
  Dose.FC.LYZ.S: −0.084 log 2 fold change

## S3I-201
ISC-enriched organoids [1]; Dose 0.08 uM, primary screen
  Z.LYZ.NS (standard z score): 0.445
  Dose.FC.LYZ.NS (log 2 fold change): 0.051
ISC-enriched organoids [1]; Dose 0.40 uM, primary screen
  Z.LYZ.NS (standard z score): 0.527
  Dose.FC.LYZ.NS (log 2 fold change): 0.061
ISC-enriched organoids [1]; Dose 2.00 uM, primary screen
  Z.LYZ.NS (standard z score): 0.212
  Dose.FC.LYZ.NS (log 2 fold change): 0.024
ISC-enriched organoids [1]; Dose 10.00 uM, primary screen
  Z.LYZ.NS (standard z score): −0.143
  Dose.FC.LYZ.NS (log 2 fold change): −0.016
ISC-enriched organoids [2]; Dose 0.08 uM, primary screen
  Z.CTG (standard z score): 0.766
  Dose.FC.CTG (log 2 fold change): 0.321
ISC-enriched organoids [2]; Dose 0.40 uM, primary screen
  Z.CTG (standard z score): 0.382
  Dose.FC.CTG (log 2 fold change): 0.160
ISC-enriched organoids [2]; Dose 2.00 uM, primary screen
  Z.CTG (standard z score): 0.188
  Dose.FC.CTG (log 2 fold change): 0.079
ISC-enriched organoids [2]; Dose 10.00 uM, primary screen
  Z.CTG (standard z score): −0.334
  Dose.FC.CTG (log 2 fold change): −0.140
ISC-enriched organoids [3]; Dose 0.08 uM
  Dose.FC.LYZ.S (log 2 fold change): 0.033
ISC-enriched organoids [3]; Dose 0.40 uM
  Dose.FC.LYZ.S (log 2 fold change): 0.157
ISC-enriched organoids [3]; Dose 2.00 uM
  Dose.FC.LYZ.S (log 2 fold change): −0.004
ISC-enriched organoids [3]; Dose 10.00 uM
  Dose.FC.LYZ.S (log 2 fold change): −0.052
